Data from patent US20100240537A1, “Substituted 6-(alkylbenzylamino)purine derivatives for use as cytokinin receptor antagonists and preparations containing these derivatives” (priority 2007, published 2010).

Experiments:
[1] = system: cytokinin-dependent tobacco callus Nicotiana tabacum L. cv. Wisconsin 38; assay: Cytokinin-dependent tobacco callus bioassay; type: cell-based; details: for activity (%) [10^−6 mol · l^−1 BA = 100%]: at concentration with highest activity, n.a. means inactive; for concentration with highest activity: callus fresh weight after four weeks
Experimental: Stimulatory effect of newly prepared derivatives was tested using cytokinin-dependent tobacco callus. The cytokinin-dependent tobacco callus Nicotiana tabacum L. cv. Wisconsin 38 was maintained at 25° C. in darkness on modified MS medium, containing per 1 liter: 4 μmol of nicotinic acid, 2.4 μmol of pyridoxine hydrochloride, 1.2 μmol of thiamine, 26.6 μmol of glycine, 1.37 μmol of glutamine, 1.8 μmol of myo-inositol, 30 g of sucrose, 8 g of agar, 5.37 μmol of NAA and 0.5 μmol of the compound tested. Subcultivation was carried out every three weeks. Fourteen days before the bioassay, the callus tissue was transferred to the media without 6-benzylaminopurine. The biological activity was determined from the increase of the fresh callus weight after four weeks of cultivation. Five replicates were prepared for each concentration of the compound tested and the entire test was repeated twice. […] The compounds to be tested were dissolved in dimethylsulfoxide (DMSO) and the solution brought up to 10^−3M with distilled water. This stock solution was further diluted with the respective media used for the biotest to a concentration ranging from 10^−8M to 10^−4M.
From the obtained data, the concentration with the highest activity was selected for each compound tested. Relative activity of the compound at this concentration was calculated (Table 3). The activity obtained for 10^−6 M of the control substance 6-benzylaminopurine was postulated as 100% biological activity. […]

[2] = system: Arabidopsis seedlings (wild-type, receptor double mutants); assay: Primary root length of Arabidopsis seedlings; type: in vivo; details: 1 μM
Experimental: FIG. 5 Effect of compound 8 on primary root length of Arabidopsis seedlings. Increase in the length of the primary roots observed in ahk2 ahk3 double mutant seedlings (6 DAG) grown on medium containing 1 μM compound 8.
However, when 1 μM compound 8 was applied to the growth media of ahk2 ahk3 double mutants, significant increase (about 15%) in the length of the primary roots was observed compared to untreated control (FIG. 5).

[3] = system: breast carcinoma cell line MCF-7; assay: Calcein AM cytotoxicity assay, MCF-7; type: cell-based, human; details: Homo sapiens, MCF7, 72 hours
From the text: (§1) Absence of toxic effects against mammalian (especially human) cell lines in a wide concentration range is one of the requirements on compounds intended for use in agriculture. Because toxic compounds negatively influence metabolic processes in cells, many standard cytotoxicity assays are based on measurement of metabolisation rate of various artificial substrates. Resulting product is then quantified e.g. by means of spectrometry. The assays can be easily modified for use in 96-well plates. For evaluation of cytotoxic effect of the novel substituted 6-(alkylbenzylamino)purine derivatives of this invention, a microtiter assay based on quantification of metabolisation of Calcein AM was used. The assay is widely used in drug screening programs and in chemosensitivity testing. In live cells, Calcein AM is enzymatically hydrolysed and accumulation of resulting calcein is manifested by green fluorescence.
(§2) The cells were maintained in Nunc/Corning 80 cm^2 plastic tissue culture flasks and cultured in cell culture medium (DMEM with 5 g/l glucose, 2 mM glutamine, 100 U/ml penicillin, 100 μg/ml streptomycin, 10% fetal calf serum and sodium bicarbonate).
(§3) The cell suspensions were prepared and diluted according to the particular cell type and the expected target cell density (10^4 cells per well based on cell growth characteristics) and pippetted (80 μl) into 96-well plates. Inoculates were allowed a pre-incubation period of 24 hours at 37° C., 100% humidity and 5% CO2 for stabilisation. Tested compounds were added in total volume of 20 μl of water at time zero. Usually, test compound was evaluated at six 3-fold dilutions. In routine testing, the highest concentration tested was 100 μM, the eventual changes depended on physico-chemical characteristics of the respective compound. All drug concentrations were tested in triplicates. Incubations of cells with the test compounds lasted for 72 hours at 37° C., in 5% CO2 atmosphere and 100% humidity. At the end of incubation period Calcein AM (Molecular Probes) in PBS was added into final concentration of 1 μg/ml. After another 1 hour of incubation fluorescence (FD) was measured with the Labsystem FIA Reader Fluoroscan Ascent (UK). Growth inhibition (GI) was estimated using the following equitation: GI=(mean FDdrug exposed wells−mean FDblank)/(mean FDcontrol wells−mean FDblank)×100%.

[4] = system: Human diploid fibroblasts SNF25; assay: MTT viability assay on human diploid fibroblasts; type: cell-based; details: Homo sapiens, Fibroblast; SNF25 passage 19, 72 hours; read-out: IC50 (reduction in mitochondrial activity, MTT)
Experimental: MTT is a standard colorimetric assay for measurement of proliferation and survival of the cells. Yellow MTT is reduced into violet formazan in metabolically active cells. The amount of formazan is measured by spectrometry. Human diploid fibroblasts SNF25 (passage 19) were seeded in 96-well plate (5000 cells per well). After 6 hours, the cultivation medium (DMEM containing 5 g/l glucose, 2 mM glutamin, 100 U/ml penicillin, 100 μg/ml streptomycin and 10% fetal calf serum) was removed and fresh medium containing a test compound in concentration range of 0-100 μM was added. The concentration was adjusted in cases of compounds with limited solubility. Each concentration was tested in 5 replicates. MTT was added to the cells after 72 hours into final concentration of 0.5 mg/ml. Incubation time was 3 hours. Resulting MTT was disolved in DMSO and absorbance was measured. The cytotoxic effect was estimated as IC=(Awells with compounds/Acontrol wells)×100%.

melanoma cell line G-361 = assay: Calcein AM cytotoxicity assay, G-361; type: cell-based, human; details: Homo sapiens, G-361, 72 hours
From the text: as §1, §2, §3

[5] = system: osteosarcoma cell line HOS; assay: Calcein AM cytotoxicity assay, HOS; type: cell-based, human; details: Homo sapiens, 72 hours
From the text: as §1, §2, §3

[6] = system: wild-type Arabidopsis seeds; assay: Germination of Arabidopsis seeds; type: in vivo
Experimental: Early germination of wild-type Arabidopsis seeds cultivated on MS medium containing indicated concentrations of compound 8 after replacement from dark to white light (16 h light/8 hours dark).
Subsequent testing confirmed positive effect of the compound 8 on germination. After sowing and pretreatment in dark at 4° C., seeds were transferred to light and ambient temperature. After 30 hours more than 60% of seeds sown on medium containing 1 nM compound 8 were germinating, which was twice as much as in the case of control sown on compound 8 free medium. The number of germinating seeds was further enhanced with higher concentration of compound 8 and 80% of seeds were germinated when 10 nM compound 8 was present in the medium (FIG. 6).

Row | SMILES | activity (%) [10^−6 mol · l^−1 BA = 100%] [1] | concentration with highest activity [1] | elongation of the primary root, wild-type seedlings ([2]; wild-type) | GI50 [3] [µM] | IC50 [4] [µM] | GI50 (melanoma cell line G-361) [µM] | GI50 [5] [µM] | germinating seeds ([6]; 1 nM in medium, after 30 hours in light) | germinated seeds ([6]; 10 nM in medium) [%] | increase in the length of the primary roots compared to untreated control ([2]; ahk2 ahk3 double mutants, 6 DAG)
1 | c1ccc(CNc2ncnc3nc[nH]c23)cc1 [6-(benzylamino)purine] | 100% | 10^−6 mol.l^−1 | almost completely inhibited | > 100 | > 100 | > 100 | > 100 |  |  | 
2 | Cc1cccc(CNc2ncnc3nc[nH]c23)c1O [Compound 8, 6-(2-hydroxy-3-methylbenzylamino)purine] | 2 (±2) % | 10^−4 mol.l^−1 |  | > 50 | > 50 | > 50 | > 50 | more than 60% | 80 | about 15%
3 | Cc1ccc(O)c(CNc2ncnc3nc[nH]c23)c1 [Compound 10, 6-(2-hydroxy-5-methylbenzylamino)purine] | 35 (±8) % | 10^−4 mol.l^−1 |  | > 100 | > 100 | > 100 | > 100 |  |  | 
